Values of other authors in patent publication US20130109728A1, “BIOCIDE COMPOSITION” (TITAN CHEMICALS LIMITED, priority 2011, published 2013).

What was measured:
[1] = not given; remark: listed apart in the source

Cn1sccc1=O [MIT, 2-methylisothiazolin-3-one]
freezing point of solutions in water (solutions of MIT in water): about 0 °C

C[N+](C)(C)C.O=c1[nH]sc2ccccc12 [tetramethylammonium BIT, tetramethylammonium 1,2-benzisothiazolin-3-one]
minimum freezing point of water solution (59 wt % tetramethylammonium BIT (40 wt % calculated as BIT), after storage for 24 hours and seeding with solid tetramethylammonium BIT, reported in WO 02 14 293): 3 °C

O=c1[nH]sc2ccccc12 [BIT, 1,2-benzisothiazolin-3-one]
water solubility [1]: not very water soluble
